For twelve compounds, AC50 results are on record in patent US20230104936A1, “TRPML MODULATORS” (Casma Therapeutics, Inc., priority 2019, published 2023).

For this assay, the system named is TFEB. The assay is described as follows: TFEB nuclear translocation assay, HeLa wt cells. Type of assay: cell-based. The following applies: Homo sapiens, HeLa, 2 h, 2 hrs compound treatment, Table 1 does not say HeLa wt or TRPML1 KO. The procedure, abridged: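 HeLa wt cells were treated with compound for 2 hrs at 37° C, then fixed in 4% PFA and immunostained for TFEB with an Alexa 488 secondary and Hoechst nuclear counterstain. Automated epifluorescence imaging at ×20 gave the ratio of nuclear TFEB intensity to a perinuclear ring region, from which AC50 was derived.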
The compound `CC(c1ccccc1N1CCC2(CC1)COC(C)(C)C2)S(=O)(=O)Cc1ccccc1` (stereo not drawn) [Compound A-751, 3,3-dimethyl-8-[2-(1-phenylmethanesulfonylethyl)phenyl]-2-oxa-8-azaspiro[4.5]decane] showed a concentration at half-maximal activity (AC50) of at least 10000 nM.

As to `O=S(=O)(Nc1ccccc1N1CCC(c2ccc(Cl)cc2F)CC1)c1cccc(F)c1` [Compound A-78, N-{2-[4-(4-chloro-2-fluorophenyl)piperidin-1-yl]phenyl}-3-fluorobenzene-1-sulfonamide], the half-maximal activity concentration (AC50) is at least 10000 nM.

With `COCCOCC1(C)CCN(c2ccccc2NS(=O)(=O)c2ccc(S(=O)(=O)N(C)C)cc2)CC1` [Compound A-518, N4-(2-{4-[(2-methoxyethoxy)methyl]-4-methylpiperidin-1-yl}phenyl)-N1,N1-dimethylbenzene-1,4-disulfonamide], the AC50 is at most 2000 nM.

In turn, `COCC1(C)CCN(c2ccccc2NS(=O)(=O)Cc2ccc(C)cc2)CC1` [Compound A-578, N-{2-[4-(methoxymethyl)-4-methylpiperidin-1-yl]phenyl}-1-(4-methylphenyl)methanesulfonamide] came in with an AC50 of 2010 to 8000 nM.

`CC(C)(C)C(=O)N1CCN(c2ccccc2NS(=O)(=O)c2ccc(OC3CC3)cc2)CC1` [Compound A-576, 4-cyclopropoxy-N-{2-[4-(2,2-dimethylpropanoyl)piperazin-1-yl]phenyl}benzene-1-sulfonamide] had an AC50 of at least 10000 nM.

In turn, `CN(C)S(=O)(=O)c1ccc(S(=O)(=O)Nc2ccccc2N2CCC3(CC2)CN(C(=O)OC2CCOC2)c2cc(F)ccc23)cc1` (stereo not drawn) [Compound A-442, oxolan-3-yl 1′-{2-[4-(dimethylsulfamoyl)benzenesulfonamido]phenyl}-6-fluoro-1,2-dihydrospiro[indole-3,4′-piperidine]-1-carboxylate] registered an AC50 of at most 2000 nM.

`C[C@@H]1CN(CC2(F)CCN(c3c(F)cccc3NS(=O)(=O)c3ccc(S(=O)(=O)N(C)C)cc3)CC2)C[C@H](C)O1` [Compound A-794, N4-[2-(4-{[(2R,6S)-2,6-dimethylmorpholin-4-yl]methyl}-4-fluoropiperidin-1-yl)-3-fluorophenyl]-N1,N1-dimethylbenzene-1,4-disulfonamide]: the AC50 was at most 2000 nM.

Take `COC1(C(=O)N2CCN(c3ccccc3NS(=O)(=O)c3ccc(S(=O)(=O)N(C)C)cc3)CC2)CCC1` [Compound A-458, N4-{2-[4-(1-methoxycyclobutanecarbonyl)piperazin-1-yl]phenyl}-N1,N1-dimethylbenzene-1,4-disulfonamide]: the AC50 fell in the range of 2010 to 8000 nM.

The compound `CN(C)S(=O)(=O)c1ccc(S(=O)(=O)Nc2ccccc2N2CCC(COC(F)F)CC2)cc1` [Compound A-543, N4-(2-{4-[(difluoromethoxy)methyl]piperidin-1-yl}phenyl)-N1,N1-dimethylbenzene-1,4-disulfonamide] displayed an AC50 of at most 2000 nM.

In the case of `CN(C)S(=O)(=O)c1ccc(S(=O)(=O)Nc2ccccc2N2CCC(CCCN3CCOCC3)CC2)cc1` [Compound A-547, N1,N1-dimethyl-N4-(2-{4-[3-(morpholin-4-yl)propyl]piperidin-1-yl}phenyl)benzene-1,4-disulfonamide], the AC50 was at most 2000 nM.

Compound `C[C@@H]1CN(CC2CCN(c3c(F)cccc3NS(=O)(=O)c3ccc(S(=N)(=O)N(C)C)cc3)CC2)C[C@H](C)O1` (single isomer, unassigned) [Compound A-810, Rel-N-(2-(4-((2,6-dimethylmorpholino)methyl)piperidin-1-yl)-3-fluorophenyl)-4-(N,N-dimethylsulfamidimidoyl)benzenesulfonamide] had a half-maximal activity concentration (AC50) of at most 2000 nM.

`CN(C)S(=N)(=O)c1ccc(S(=O)(=O)Nc2cccc(F)c2N2CCC(CN3CC4CCC(C3)O4)CC2)cc1` (stereo not drawn) [Compound A-844, 4-({3-fluoro-2-[4-({8-oxa-3-azabicyclo[3.2.1]octan-3-yl}methyl)piperidin-1-yl]phenyl}sulfamoyl)-N,N-dimethylbenzene-1-sulfonoimidamide] yielded an AC50 of at most 2000 nM.

As a reminder, the AC50 is the midpoint of the concentration-response curve, whichever way the signal moves.
